Assay results from patent US20200371122A1, “BIOMARKER FOR SENESCENT CELLS” (Buck Institute for Research on Aging, priority 2017, published 2020).

Test system: IMR-90 fibroblasts
Experiment: Induction of senescence in non-senescent cells by prostaglandins or 5-LOX pathway products (EdU, SA-B-gal, p21, immunoblot)
Format: cell-based, human
Details: 10 μM, 10 days
Method: RNA was extracted from cells or tissues using commercially available kits (Isolate II—Bioline for cells; Direct-zol—Zymo for tissues) according to the manufacturer's instructions. cDNA synthesis was performed using a High Capacity cDNA Reverse Transcription Kit (Thermo Fisher) according to the manufacturer's instructions. Quantitative PCR was performed on a LightCycler 480 II (Roche) using primers and probes designed for the Universal Probe Library. Primers and probes used for human transcripts were ACTB: 5′-CCAACCGCGAGAAGATGA (SEQ ID NO:1), 5′-TCCATCACGATGCCAGTG (SEQ ID NO:2), Probe #64; TUBA: 5′-cttcgtctccgccatcag (SEQ ID NO:3), 5′-ttgccaatctggacacca (SEQ ID NO:4), Probe #58; ALOX5: 5′-[…] (SEQ ID NO:5), 5′-[…] (SEQ ID NO:6), Probe #64; ALOX5AP: 5′-ggtctgcggggctacttt (SEQ ID NO:7), 5′-[…] (SEQ ID NO:8), Probe #18; ALOX12: 5′-[…] (SEQ ID NO:9), 5′-agccaggtcgtcaggag (SEQ ID NO:10), Probe #32; ALOX15: 5′-[…] (SEQ ID NO:11), 5′-[…] (SEQ ID NO:12), Probe #76; ALOX15B: 5′-[…] (SEQ ID NO:13), 5′-actgggaggcgaagaagg (SEQ ID NO:14), Probe #51; AKR1C1: 5′-catgcctgtcctgggattt (SEQ ID NO:15), 5′-[…] (SEQ ID NO:16), Probe #49; AKR1C2: 5′-ctatgcgcctgcagaggt (SEQ ID NO:17), 5′-[…] (SEQ ID NO:18), Probe #31; AKR1C3: 5′-[…] (SEQ ID NO:19), 5′-[…] (SEQ ID NO:20), Probe #78; CYSLTR2: 5′-[…] (SEQ ID NO:21), 5′-[…] (SEQ ID NO:22), Probe #18; DPEP1: 5′-gacgtcctgaggctggtg (SEQ ID NO:23), 5′-[…] (SEQ ID NO:24), Probe #9 (SEQ ID NO:25), ELOVL2: 5′-[…] (SEQ ID NO:26), 5′-[…] (SEQ ID NO:27), Probe #53; ELOVL4: 5′-catttggcccatggattc (SEQ ID NO:28), 5′-[…] (SEQ ID NO:29), Probe #31; ELOVL5: 5′-cccttccatgcgtccata (SEQ ID NO:30), 5′-[…] (SEQ ID NO:31), Probe #31; EPHX2: 5′-ttctgctggacaccctgaa (SEQ ID NO:32), 5′-[…] (SEQ ID NO:33), Probe #45; GPX4: 5′-ttcccgtgtaaccagttcg (SEQ ID NO:34), 5′-[…] (SEQ ID NO:35), Probe #36; LTA4H: 5′-ctgctctcacggtccagtc (SEQ ID NO:36), 5′-[…] (SEQ ID NO:37), Probe #64; LTBR2: 5′-[…] (SEQ ID NO:38), 5′-[…] (SEQ ID NO:39), Probe #33; LTC4S: 5′-[…] (SEQ ID NO:40), 5′-[…] (SEQ ID NO:41), Probe #18; PTGDS: 5′-[…] (SEQ ID NO:42), 5′-[…] (SEQ ID NO:43), Probe #36; PTGES: 5′-agagatgcctgcccacag (SEQ ID NO:44), 5′-tggccaccacgtacatctt (SEQ ID NO:45), Probe #4; PTGES2: 5′-[…] (SEQ ID NO:46), 5′-[…] (SEQ ID NO:47), Probe #49; PTGES3 (SEQ ID NO:48), 5′-[…] (SEQ ID NO:49), 5′-[…] (SEQ ID NO:50), Probe #48; PTGIS: 5′-[…] (SEQ ID NO:51), 5′-[…] (SEQ ID NO:52), Probe #45; PTGR1: 5′-atgatggggcagcaagtg (SEQ ID NO:53), 5′-cccatcagaaatggagtgc (SEQ ID NO:54), Probe #64; PTGS1: 5′-[…] (SEQ ID NO:55), 5′-gtggtggtccatgttcctg (SEQ ID NO:56), Probe #81; PTGS2: 5′-gatccccagggctcaaac (SEQ ID NO:57), 5′-[…] (SEQ ID NO:58), Probe #61; TBXAS1: 5′-[…] (SEQ ID NO:59), 5′-tgcctcccgtgtgaatct (SEQ ID NO:60), Probe #73; AREG: 5′-[…] (SEQ ID NO:61), 5′-[…] (SEQ ID NO:62), Probe #73; CCL2: 5′-AGTCTCTGCCGCCCTTCT (SEQ ID NO:63), 5′-GTGACTGGGGCATTGATTG (SEQ ID NO:64), Probe #40; CCL27: 5′-[…] (SEQ ID NO:65), 5′-gctgggtggcagtaggaat (SEQ ID NO:66), Probe #18; CXCL1: 5′-[…] (SEQ ID NO:67), 5′-[…] (SEQ ID NO:68), Probe #52; HGF: 5′-[…] (SEQ ID NO:69), 5′-[…] (SEQ ID NO:70), Probe #49; ILIA: 5′-[…] (SEQ ID NO:71), 5′-[…] (SEQ ID NO:72), Probe #6; IL1B: 5′-[…] (SEQ ID NO:73), 5′-[…] (SEQ ID NO:74), Probe #78; IL6: 5′-[…] (SEQ ID NO:75), 5′-gaaggcagcaggcaacac (SEQ ID NO:76), Probe #45; IL8: 5′-[…] (SEQ ID NO:77), 5′-atggttccttccggtggt (SEQ ID NO:78), Probe #72; IL10: 5′-[…] (SEQ ID NO:79), 5′-[…] (SEQ ID NO:80), Probe #67; MMP3: 5′-[…] (SEQ ID NO:81), 5′-[…] (SEQ ID NO:82), Probe #36; PDGFA: 5′-[…] (SEQ ID NO:83), 5′-[…] (SEQ ID NO:84), Probe #80; VEGF: 5′-[…] (SEQ ID NO:85), 5′-[…] (SEQ ID NO:86), Probe #50; P21WAF1(CDKN1A): 5′-[…]

CCCCC/C=C/C=C1/C(=O)C=C[C@@H]1C/C=C\CCCC(=O)O [15d-PGJ2]
induced: p21 gene expression | senescence-associated beta-galactosidase | p21 protein accumulation (immunoblot)
